Results on two substances are retold here after patent US20100216661A1, “Diagnostic Assay” (priority 2007, published 2010).

For experiment [1], the system named is anti-Fy^b monoclonal antibody (LM447). Description: LiquiChip Ni-NTA microsphere bead assay (Luminex 100), anti-Fy^b. Type of experiment: binding, Murine. To be noted: FIG. 11; peptide with C-terminal 6 Histidine tag; Luminex 100 Analyser. As for the experimental part: (§1) Further confirmation that the peptide mimotopes can specifically bind antibodies raised to native blood group antigens was achieved following the immobilisation of peptide mimotopes onto polystyrene LiquiChip Ni-NTA microsphere beads (Qiagen).
(§2) Peptide mimotopes (e.g. Fyb16; RhD12) were synthesised with a C-terminal tag consisting of 6 Histidine amino acids. Stock solutions (4 μg/ml) of the 6×His tagged peptide mimotopes were prepared in PBS/0.1% BSA. The peptides were immobilised onto the beads using the Ni-NTA groups attached to the surface of the beads, as follows. A 50 μl volume of a 4 μg/ml peptide stock (Fyb16 or RhD12) was mixed with an equal volume of LiquiChip Ni-NTA beads (Bead 50 or Bead 52, respectively). Following incubation with mixing at 4° C. overnight, the Bead/peptide mixture was diluted with 900 μl of PBS/0.1% BSA. The Bead/peptide mixture was vortexed for 2 minutes and then a 10 μl volume was aliquoted into the well of a 96-well, round-bottomed. ELISA plate (Nunc). […] Confirmation of bound monoclonal antibody was determined by the detection of a phycoerythrin fluorochrome signal. The intensity of the signal equates to the quantity of monoclonal antibody bound to the immobilised peptide mimotope.

The test system is the same in experiment [2]. The experiment is described as follows: Modified gel agglutination assay with superparamagnetic TALON beads, anti-Fy^b. Type of experiment: binding, Murine. Conditions: FIG. 14; His-tagged peptide; TALON Dynabeads; NaCl gel card with sheep anti-mouse IgG; read visually; anti-RhD T27 as comparison chamber. Here is the method:
(§3) The ability of peptide mimotopes to specifically bind antibodies was further tested using superparamagnetic polystyrene beads (TALON Dynabeads; Invitrogen) in a modified gel agglutination assay.
(§4) A 50 μl volume of the magnetic beads was added to 700 μl of TBS (50 mM Tris-HCl pH7.5; 150 mM NaCl). Following mixing for 5 minutes at room temperature, the magnetic beads were isolated using a Magnetic Particle Concentrator (Invitrogen). The supernatant was discarded and the beads were washed for 5 minutes in 700 μl of TBS. The beads were again separated from the buffer using the MPC magnet, and then resuspended in 700 μl of TBS. Peptide mimotopes (e.g. Fyb16; RhD12) were synthesised with a C-terminal tag consisting of 6 Histidine amino acids. Stock solutions (100 μg/ml) of the 6×His tagged peptide mimotopes were prepared in PBS.
To test the binding of a murine monoclonal antibody (e.g. LM447: anti-Fy^b monoclonal antibody), a 1 μl volume of sheep anti-mouse IgG is first added to the reaction chamber of an NaCl gel card and allowed to equilibrate with the gel matrix for 10 minutes at room temperature, prior to the addition of a 50 μl volume of diluted TALON beads, a 50 μl volume of diluted His-tagged peptide mimotope (e.g. Fyb16) and 100 μl of the test murine monoclonal antibody (e.g. LM447: anti-Fy^b). […] Again the reaction was read visually.

The test system of experiment [3] is anti-RhD monoclonal antibody (T27). The experiment is described as follows: Modified gel agglutination assay with superparamagnetic TALON beads, anti-RhD. It counts as binding, Human. Conditions: FIG. 13; His-tagged peptide; TALON Dynabeads; NaCl gel card; read visually; anti-Fy^b LM447 as comparison chamber. As for the experimental part:
as §3, §4
A 50 μl volume of diluted TALON beads was placed in the reaction chamber of an NaCl gel card (ID Microtyping System; Diamed), together with a 50 μl volume of diluted His-tagged peptide mimotope (e.g. RhD12) and 100 μl of test human monoclonal antibody (e.g. T27: anti-RhD). The gel card was incubated at 37° C. for 1 hour in an Incubator-ID (DiaMed). Following incubation, the card was centrifuged for 10 minutes in an ID Centrifuge 24S (DiaMed). Antibody-positive reactions are visualised by a layer of beads upon the surface of the gel matrix. […]

Experiment [4] has the same test system. Description: LiquiChip Ni-NTA microsphere bead assay (Luminex 100), anti-RhD. Type of experiment: binding, Human. To be noted: FIG. 12; peptide with C-terminal 6 Histidine tag; Luminex 100 Analyser. As for the experimental part: as §1, §2

On to FQPNPPPSFAAP [Fyb16], for which the “Binding of anti-Fy^b antibody LM447 to peptide immobilised on LiquiChip Ni-NTA microsphere beads (phycoerythrin signal)” value in experiment [1] was “specific binding”. In addition, the “Binding of anti-Fy^b antibody LM447 to peptide on superparamagnetic polystyrene beads, modified gel agglutination assay” value in experiment [2] is “specific binding”.
With “RhD12: RhD peptide mimotope, Table 4 (HQNPWLLWPRGF)”, in experiment [3], the “Binding of anti-RhD antibody T27 to peptide on superparamagnetic polystyrene beads, modified gel agglutination assay” value was “specific binding”. Also, the “Binding of anti-RhD antibody T27 to peptide immobilised on LiquiChip Ni-NTA microsphere beads (phycoerythrin signal)” value in experiment [4] is “specific binding”.
